35 molecules from patent publication US9458110B2, “Phenylpyrazole derivatives as potent ROCK1 and ROCK2 inhibitors” (BRISTOL-MYERS SQUIBB COMPANY, priority 2013, dated 2016) can be followed below.

A value given as a limit tells only on which side of the number the result lay.

For one assay, the target named is ROCK2 (Homo sapiens (Human), UniProt O75116). Description: ROCK assay (Caliper LABCHIP peptide phosphorylation), ROCK2.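 Note: reaction stopped with EDTA, then phosphorylated and unphosphorylated peptide resolved by microfluidic electrophoresis, kinase inhibition computed at each compound concentration in dose-response series, DMSO under 2%.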 It counts as biochemical. Conditions: 5 μM ATP, 1.5 μM peptide substrate.
Chain of ROCK2 (O75116 whole entry, species assumed): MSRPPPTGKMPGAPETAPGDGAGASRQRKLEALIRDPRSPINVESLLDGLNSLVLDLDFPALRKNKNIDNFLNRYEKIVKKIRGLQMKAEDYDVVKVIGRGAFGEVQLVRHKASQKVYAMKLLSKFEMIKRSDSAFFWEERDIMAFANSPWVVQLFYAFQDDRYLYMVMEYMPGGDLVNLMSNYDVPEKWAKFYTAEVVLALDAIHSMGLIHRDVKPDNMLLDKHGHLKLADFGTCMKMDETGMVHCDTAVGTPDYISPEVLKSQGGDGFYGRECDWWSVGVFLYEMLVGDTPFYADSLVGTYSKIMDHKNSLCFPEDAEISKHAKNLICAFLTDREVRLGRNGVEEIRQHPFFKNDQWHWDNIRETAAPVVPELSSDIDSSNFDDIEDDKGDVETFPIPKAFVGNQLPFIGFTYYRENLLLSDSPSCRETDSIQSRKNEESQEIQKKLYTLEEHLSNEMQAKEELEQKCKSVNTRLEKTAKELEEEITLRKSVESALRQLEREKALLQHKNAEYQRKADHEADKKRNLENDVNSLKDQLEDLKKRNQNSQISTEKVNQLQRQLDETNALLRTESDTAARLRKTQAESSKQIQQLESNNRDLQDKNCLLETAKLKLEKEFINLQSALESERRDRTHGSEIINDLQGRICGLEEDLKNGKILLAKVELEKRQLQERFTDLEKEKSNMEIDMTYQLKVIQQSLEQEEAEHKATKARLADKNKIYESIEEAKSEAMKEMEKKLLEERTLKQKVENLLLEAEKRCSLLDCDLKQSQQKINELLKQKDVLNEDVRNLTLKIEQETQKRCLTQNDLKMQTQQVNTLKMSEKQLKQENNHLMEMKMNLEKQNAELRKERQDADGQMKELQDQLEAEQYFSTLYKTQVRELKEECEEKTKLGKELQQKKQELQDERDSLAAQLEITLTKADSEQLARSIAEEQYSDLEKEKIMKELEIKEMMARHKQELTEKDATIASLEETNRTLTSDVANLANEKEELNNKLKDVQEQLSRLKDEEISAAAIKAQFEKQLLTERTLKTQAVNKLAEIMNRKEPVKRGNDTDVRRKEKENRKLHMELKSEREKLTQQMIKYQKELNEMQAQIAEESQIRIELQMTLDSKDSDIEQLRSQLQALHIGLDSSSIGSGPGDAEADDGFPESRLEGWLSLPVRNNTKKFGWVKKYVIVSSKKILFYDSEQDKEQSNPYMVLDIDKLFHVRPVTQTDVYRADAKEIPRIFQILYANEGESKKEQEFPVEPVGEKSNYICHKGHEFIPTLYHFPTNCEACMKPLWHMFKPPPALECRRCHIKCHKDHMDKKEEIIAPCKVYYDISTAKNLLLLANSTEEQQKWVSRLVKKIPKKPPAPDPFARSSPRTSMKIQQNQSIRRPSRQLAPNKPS
The target in a further assay is ROCK1 (Homo sapiens (Human), UniProt Q13464). Kind of assay: ROCK assay (Caliper LABCHIP peptide phosphorylation), ROCK1.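 Note: Read-out is separation of phosphorylated from unphosphorylated peptide, with kinase activity inhibition computed at every concentration of a dose-response series.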 Conditions: 5 μM ATP, 1.5 μM peptide substrate. The class given is biochemical.
Chain of ROCK1 (Q13464 whole entry, species assumed): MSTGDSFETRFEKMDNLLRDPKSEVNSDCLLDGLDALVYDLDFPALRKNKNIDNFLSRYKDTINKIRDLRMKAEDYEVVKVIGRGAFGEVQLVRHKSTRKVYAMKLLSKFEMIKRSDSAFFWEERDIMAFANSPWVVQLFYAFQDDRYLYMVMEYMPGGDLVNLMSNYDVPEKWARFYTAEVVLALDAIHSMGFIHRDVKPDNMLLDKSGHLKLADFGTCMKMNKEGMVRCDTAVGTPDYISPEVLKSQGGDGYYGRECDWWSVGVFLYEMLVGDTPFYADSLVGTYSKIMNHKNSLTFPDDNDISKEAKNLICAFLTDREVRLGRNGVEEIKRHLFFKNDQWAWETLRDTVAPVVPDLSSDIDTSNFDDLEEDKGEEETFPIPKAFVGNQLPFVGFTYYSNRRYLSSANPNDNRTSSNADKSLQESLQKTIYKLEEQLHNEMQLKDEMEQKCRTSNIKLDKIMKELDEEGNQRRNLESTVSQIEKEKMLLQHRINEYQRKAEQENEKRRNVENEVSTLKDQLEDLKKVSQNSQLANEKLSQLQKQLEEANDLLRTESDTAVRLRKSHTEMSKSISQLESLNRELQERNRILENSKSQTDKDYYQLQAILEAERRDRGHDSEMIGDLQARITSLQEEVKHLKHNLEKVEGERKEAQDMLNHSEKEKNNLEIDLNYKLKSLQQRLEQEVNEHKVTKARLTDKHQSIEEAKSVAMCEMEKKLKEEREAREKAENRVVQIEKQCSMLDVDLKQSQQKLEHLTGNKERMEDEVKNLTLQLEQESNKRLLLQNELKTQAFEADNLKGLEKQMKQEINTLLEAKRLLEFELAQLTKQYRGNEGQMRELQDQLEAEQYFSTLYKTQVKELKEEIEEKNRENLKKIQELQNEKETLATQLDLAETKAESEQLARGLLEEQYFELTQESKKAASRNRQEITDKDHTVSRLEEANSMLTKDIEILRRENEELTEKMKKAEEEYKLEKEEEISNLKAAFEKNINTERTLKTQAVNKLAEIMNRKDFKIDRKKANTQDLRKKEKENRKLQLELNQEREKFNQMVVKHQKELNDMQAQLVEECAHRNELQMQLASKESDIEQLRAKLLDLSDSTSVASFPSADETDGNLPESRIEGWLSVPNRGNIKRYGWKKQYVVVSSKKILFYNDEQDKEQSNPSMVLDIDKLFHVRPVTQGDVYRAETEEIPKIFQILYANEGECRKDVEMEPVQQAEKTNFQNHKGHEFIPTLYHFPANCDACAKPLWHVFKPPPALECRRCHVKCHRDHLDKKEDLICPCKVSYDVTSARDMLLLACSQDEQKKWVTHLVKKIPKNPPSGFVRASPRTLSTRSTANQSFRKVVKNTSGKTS

As to `COc1cc(C(=O)NCc2ccc(C#N)cc2)ccc1-c1cn[nH]c1` [Example 143, N-[(4-cyanophenyl)methyl]-3-methoxy-4-(1H-pyrazol-4-yl)benzamide], the IC50 against ROCK2 is 82.5 nM; on ROCK1 it was 365 nM.
For `COc1cc(C(=O)N[C@H](C)c2ccc3c(c2)CCO3)ccc1-c1cn[nH]c1` [Example 106, N-[(1R)-1-(2,3-dihydro-1-benzofuran-5-yl)ethyl]-3-methoxy-4-(1H-pyrazol-4-yl)benzamide], the results for the IC50 against ROCK2 and on ROCK1 were 27 nM and 50.1 nM, respectively.
Regarding `COc1cc(C(=O)NCc2cccc(C(=O)NC3CC3)c2)ccc1-c1cn[nH]c1` [Example 238, N-{[3-(cyclopropyl-carbamoyl)phenyl]methyl}-3-methoxy-4-(1H-pyrazol-4-yl)benzamide], the IC50 against ROCK2 turned out to be 0.32 nM; at ROCK1, 2.44 nM.
Consider `COc1cc(C(=O)NC(CN)Cc2ccccc2)ccc1-c1cn[nH]c1` (stereo not shown) [Example 232, N-(1-amino-3-phenylpropan-2-yl)-3-methoxy-4-(1H-pyrazol-4-yl)benzamide], for which the IC50 on ROCK2 turned out to be 0.36 nM; on ROCK1, 1.04 nM.
On to `COc1cc(C(=O)NC(CO)c2ccccc2F)ccc1-c1cn[nH]c1` (stereo not shown) [Example 167, N-[1-(2-fluorophenyl)-2-hydroxyethyl]-3-methoxy-4-(1H-pyrazol-4-yl)benzamide], for which the IC50 was 16.7 nM on ROCK2 and 56.5 nM against ROCK1.
As for `COc1cccc([C@@H](C)NC(=O)c2ccc(-c3c(C)n[nH]c3C)cc2OC)c1` [Example 304, 4-(3,5-Dimethyl-1H-pyrazol-4-yl)-2-methoxy-N-[(1R)-1-(3-methoxyphenyl)ethyl]benzamide], the IC50 on ROCK2 is 24.5 nM; on ROCK1, 133 nM.
As to `COc1cc(C(=O)NCc2ccc(Cl)c(C(F)(F)F)c2)ccc1-c1cn[nH]c1` [Example 39, N-(4-chloro-3-(trifluoromethyl)benzyl)-3-methoxy-4-(1H-pyrazol-4-yl)benzamide], the IC50 against ROCK2 turned out to be 33.3 nM; against ROCK1, 107 nM.
In the same order, the values of `COc1cc(C(=O)N[C@H](CO)Cc2ccccc2)ccc1-c1cn[nH]c1` [Example 128, N-[(2S)-1-hydroxy-3-phenylpropan-2-yl]-3-methoxy-4-(1H-pyrazol-4-yl)benzamide] are 5.7 nM and 12.5 nM.
With `COc1cc(C(=O)NCc2cccc(C(N)=O)c2)ccc1-c1cn[nH]c1` [Example 250, N-[(3-carbamoylphenyl)methyl]-3-methoxy-4-(1H-pyrazol-4-yl)benzamide], the IC50 against ROCK2 was 0.72 nM; at ROCK1, 10 nM.
As to `C=C[C@@H](NC(=O)c1ccc(-c2cn[nH]c2)c(OC)c1)c1c(F)cccc1F` [Example 170, N-[(1R)-1-(2,6-difluorophenyl)prop-2-en-1-yl]-3-methoxy-4-(1H-pyrazol-4-yl)benzamide], the concentration for half-maximal inhibition (IC50) at ROCK2 was determined as 10.5 nM; against ROCK1, 17.5 nM.
On to `COc1cc(C(=O)N[C@H](C)[C@@H](O)c2ccccc2)ccc1-c1cn[nH]c1` [Example 42, N-((1S,2R)-1-hydroxy-1-phenylpropan-2-yl)-3-methoxy-4-(1H-pyrazol-4-yl)benzamide], for which the IC50 against ROCK2 worked out at 11 nM; against ROCK1, 26.3 nM.
The matching figures for `COc1ccc(F)c(C(C)NC(=O)c2ccc(-c3cn[nH]c3)cc2OC)c1` (stereo not shown) [Example 203, N-[1-(2-fluoro-5-methoxyphenyl)ethyl]-2-methoxy-4-(1H-pyrazol-4-yl)benzamide]: 6.66 nM and 19.2 nM.
Take `COc1cc(C(=O)NC(CCN(C)C)c2ccccc2)ccc1-c1cn[nH]c1` (stereo not shown) [Example 169, N-[3-(dimethylamino)-1-phenylpropyl]-3-methoxy-4-(1H-pyrazol-4-yl)benzamide]: the IC50 is 1.93 nM on ROCK2 and 4.7 nM on ROCK1.
Take `COc1cc(C(=O)N[C@@H](c2ccccc2)[C@H](O)CO)ccc1-c1cn[nH]c1` [Example 224, N-[(1S,2S)-2,3-dihydroxy-1-phenylpropyl]-3-methoxy-4-(1H-pyrazol-4-yl)benzamide]: the figures for the IC50 against ROCK2 and on ROCK1 were 1.98 nM and 8.55 nM, respectively.
The matching figures for `O=C(N[C@H](CO)c1c(F)cccc1F)c1ccc(-c2cn[nH]c2)c(OC(F)F)c1` [Example 196, 3-(difluoro-methoxy)-N-[(1S)-1-(2,6-difluorophenyl)-2-hydroxyethyl]-4-(1H-pyrazol-4-yl)benzamide]: 13.8 nM and 63.7 nM.
For the molecule `COc1cc(C(=O)NCc2cccc(NS(C)(=O)=O)c2)ccc1-c1cn[nH]c1` [Example 94, N-[(3-methanesulfon-amidophenyl)methyl]-3-methoxy-4-(1H-pyrazol-4-yl)benzamide], the IC50 on ROCK2 was found to be 6.33 nM; at ROCK1, 24.6 nM.
Regarding `CC(O)c1cc(C(=O)N[C@H](C)c2ccccc2)ccc1-c1cn[nH]c1` (stereo partly drawn) [Example 281, 3-(1-hydroxyethyl)-N-[(1R)-1-phenylethyl]-4-(1H-pyrazol-4-yl)benzamide], the values for the IC50 against ROCK2 and on ROCK1 were 9.73 nM and 26.8 nM, respectively.
Regarding `CC(NC(=O)c1ccc(-c2cn[nH]c2)c(C(F)F)c1)c1ccccc1F` (single isomer, unassigned) [Example 301, 3-(Difluoromethyl)-N-(1-(2-fluorophenyl)ethyl)-4-(1H-pyrazol-4-yl)benzamide], the results for the IC50 against ROCK2 and against ROCK1 were 361 nM and 582 nM, respectively.
As for `COc1cc(-c2cn[nH]c2)ccc1C(=O)NCc1ccccc1Cl` [Example 53, N-(2-Chlorobenzyl)-2-methoxy-4-(1H-pyrazol-4-yl)benzamide], the half-inhibitory concentration (IC50) at ROCK2 was determined as 6.2 nM; against ROCK1, 11.3 nM.
The matching figures for `COc1cccc([C@@H](C)NC(=O)c2ccc(-c3cn[nH]c3)cc2OCCO)c1` [Example 315, 2-(2-hydroxyethoxy)-N-[(1R)-1-(3-methoxyphenyl)ethyl]-4-(1H-pyrazol-4-yl)benzamide]: 2.31 nM and 7.19 nM.
With `COc1cc(C(=O)NC(C)c2cccc(O)n2)ccc1-c1cn[nH]c1` (stereo not shown) [Example 159, N-[1-(6-hydroxypyridin-2-yl)ethyl]-3-methoxy-4-(1H-pyrazol-4-yl)benzamide], the values for the IC50 against ROCK2 and against ROCK1 were 6.76 nM and 7.39 nM, respectively.
In the case of `C[C@@H](NC(=O)c1ccc(-c2cn[nH]c2)c(C#N)c1)c1ccc(F)cc1` [Example 193, 3-cyano-N-[(1R)-1-(4-fluorophenyl)ethyl]-4-(1H-pyrazol-4-yl)benzamide], the IC50 is 289 nM against ROCK2 and 873 nM on ROCK1.
As for `Cc1cc(C(=O)NCc2cccc(C(=O)NC[C@H]3CCCN3)c2)ccc1-c1cn[nH]c1` [Example 245, 3-methyl-4-(1H-pyrazol-4-yl)-N-[(3-{[(2R)-pyrrolidin-2-ylmethyl]carbamoyl}phenyl)methyl] benzamide], the IC50 against ROCK2 was found to be 0.71 nM; against ROCK1, 2.46 nM.
`COc1cc(C(=O)NCc2cc(F)ccc2F)ccc1-c1cn[nH]c1` [Example 69, N-(2,5-difluorobenzyl)-3-methoxy-4-(1H-pyrazol-4-yl)benzamide]: the IC50 against ROCK2 was 5.2 nM; against ROCK1 it was 18.6 nM.
With `COc1cc(C(=O)NCc2ccccc2Cl)ccc1-c1c[nH]nc1C` [Example 57, N-(2-Chlorobenzyl)-3-methoxy-4-(3-methyl-1H-pyrazol-4-yl)benzamide], the IC50 at ROCK2 was found to be 101 nM; at ROCK1, 147 nM.
As to `COc1cccc([C@@H](C)NC(=O)c2ccc(-c3c[nH]nc3C(C)O)cc2OC)c1` (stereo partly drawn) [Example 307, 4-(3-(1-Hydroxyethyl)-1H-pyrazol-4-yl)-2-methoxy-N-((R)-1-(3-methoxyphenyl)ethyl)benzamide], the IC50 is 205 nM on ROCK2 and 544 nM on ROCK1.
On to `COc1cc(C(=O)NCc2ccccc2C(F)(F)F)ccc1-c1cn[nH]c1` [Example 26, 3-methoxy-4-(1H-pyrazol-4-yl)-N-(2-(trifluoromethyl)benzyl)benzamide], for which the IC50 against ROCK2 turned out to be 20.9 nM; against ROCK1, 20.4 nM.
`CC(O)c1cc(C(=O)NC(C)c2ccccc2F)ccc1-c1cn[nH]c1` (stereo not shown) [Example 279, N-[1-(2-fluorophenyl)ethyl]-3-(1-hydroxyethyl)-4-(1H-pyrazol-4-yl)benzamide]: the IC50 at ROCK2 turned out to be 15.7 nM; against ROCK1, 52.9 nM.
`COc1cc(C(=O)NC2(c3ccccc3Cl)CC2)ccc1-c1cn[nH]c1` [Example 2, N-(1-(2-chlorophenyl)cyclopropyl)-3-methoxy-4-(1H-pyrazol-4-yl)benzamide]: the results for the IC50 against ROCK2 and against ROCK1 were 4.73 nM and 13.9 nM, respectively.
In the same order, the values of `COc1cc(-c2cn[nH]c2)ccc1C(=O)N[C@@H](Cc1ccccc1)[C@H](O)CO` [Example 217, N-[(2S,3S)-3,4-dihydroxy-1-phenylbutan-2-yl]-2-methoxy-4-(1H-pyrazol-4-yl)benzamide] are 12.9 nM and 15.4 nM.
Regarding “N-(3- chlorobenzyl)- 3-methoxy-4- (1H-pyrazol-4- yl)benzamide [Example 34]”, the IC50 on ROCK2 was found to be 49.7 nM; against ROCK1, 124 nM.
Consider `COc1cc(C(=O)NCc2cc(F)c(F)c(F)c2)ccc1-c1cn[nH]c1` [Example 75, 3-methoxy-4-(1H-pyrazol-4-yl)-N-(3,4,5-trifluorobenzyl) benzamide], for which the IC50 against ROCK2 came to 8.26 nM; against ROCK1, 34.1 nM.
As for `COc1cc(C(=O)NCc2ccc(Cl)cc2SCC(C)C)ccc1-c1cn[nH]c1` [Example 47, N-(4-chloro-2-(isobutylthio)benzyl)-3-methoxy-4-(1H-pyrazol-4-yl)benzamide], the values for the IC50 against ROCK2 and on ROCK1 were 1320 nM and above 2000 nM, respectively.
For the molecule `COc1cc(C(=O)NCc2cccc(C(=O)N3CCCC3)c2)ccc1-c1cn[nH]c1` [Example 66, 3-methoxy-4-(1H-pyrazol-4-yl)-N-(3-(pyrrolidine-1-carbonyl)benzyl) benzamide], the IC50 on ROCK2 was 23.5 nM; at ROCK1, 64.3 nM.
On to `COc1cc(C(=O)NCC(c2ccccc2)N2CCNCC2)ccc1-c1cn[nH]c1` (stereo not shown) [Example 132, 3-methoxy-N-[2-phenyl-2-(piperazin-1-yl)ethyl]-4-(1H-pyrazol-4-yl)benzamide], for which the IC50 against ROCK2 came out at 103 nM; against ROCK1 it was 180 nM.

One may read the IC50 as the concentration needed to halve the response being measured. High values mean lower potency, low ones higher potency.
